Laboratory results as given in PMC4505066, “Insights into the Recruitment of Class IIa Histone Deacetylases (HDACs) to the SMRT/NCoR Transcriptional Repression Complex” (The Journal of Biological Chemistry, 2015).
Like-named read-outs stand apart in the source and are kept apart here. One block for each compound: values may come before it. No end group written: not given here.

Columns and labels:
[1] = target: T1, HDAC4 catalytic domain (wild type) (Homo sapiens, UniProt P56524); experiment: Fluorescence anisotropy binding of BODIPY-TMR labeled GSI motif peptides to HDAC4
T1 construct: we purified the recombinant catalytic domains of HDACs 4, 5, 7, and 9; hexa-histidine tag (N, cleaved yes); S-tag (N, cleaved yes); made in house; host or cells: Escherichia coli Rosetta (pET30)
Procedure: Immediately prior to the fluorescence anisotropy assays the HDACs were concentrated and buffer exchanged into 1× PBS, 0.5 mM Tris(2-carboxyethyl)-phosphine and the protein concentration was determined by A280 in 6 M guanidine HCl. Protein was dispensed into 96-well black plates prior to a 2-fold serial dilution in reaction buffer (1× PBS, 0.01% Triton X-100, 0.1 mg/ml of BSA). Inhibitors were preincubated with HDACs for 30 min at a 2:1 ratio before serial dilution. Labeled peptide was added to a final concentration of 1 μM in a 50-μl reaction volume. […] Data were analyzed using GraphPad Prism, assuming non-linear fit with one-site binding to fulfill the equation y = Bmax × x/(Kd + x).

[2] = target: T2, H976Y gain-of-function (GOF) HDAC4 catalytic domain (Homo sapiens, UniProt P56524, H976Y); experiment: Fluorescence anisotropy binding of GSI peptide to H976Y gain-of-function HDAC4
T2 construct: the H976Y gain-of-function (GOF) HDAC4 catalytic domain; hexa-histidine tag (N, cleaved yes); S-tag (N, cleaved yes); made in house; host or cells: Escherichia coli Rosetta (pET30)
T2 sequence (P56524 655-1084 H976Y limits assumed): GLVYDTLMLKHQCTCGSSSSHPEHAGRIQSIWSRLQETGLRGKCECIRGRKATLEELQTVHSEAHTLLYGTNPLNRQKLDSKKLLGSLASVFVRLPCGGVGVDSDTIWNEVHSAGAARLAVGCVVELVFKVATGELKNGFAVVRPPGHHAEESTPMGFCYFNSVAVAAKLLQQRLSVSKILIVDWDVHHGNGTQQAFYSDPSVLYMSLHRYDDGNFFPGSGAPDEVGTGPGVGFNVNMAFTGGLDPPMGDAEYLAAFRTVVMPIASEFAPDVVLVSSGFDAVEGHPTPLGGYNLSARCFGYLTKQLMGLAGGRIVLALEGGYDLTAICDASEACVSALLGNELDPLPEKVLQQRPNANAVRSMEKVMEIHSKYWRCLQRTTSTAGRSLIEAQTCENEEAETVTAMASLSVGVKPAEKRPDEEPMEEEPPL
Procedure: Peptides were coupled to BODIPY-TMR by incubation in 18 MΩ water at a 5:1 molar ratio for 2 h at room temperature with continual stirring. Following incubation, buffer was exchanged into 1× PBS, 0.5 mM Tris(2-carboxyethyl)phosphine using a PD-10 column (GE Healthcare). Labeled peptides were concentrated using an Amicon centrifugal concentrator. Immediately prior to the fluorescence anisotropy assays the HDACs were concentrated and buffer exchanged into 1× PBS, 0.5 mM Tris(2-carboxyethyl)-phosphine and the protein concentration was determined by A280 in 6 M guanidine HCl. Protein was dispensed into 96-well black plates prior to a 2-fold serial dilution in reaction buffer (1× PBS, 0.01% Triton X-100, 0.1 mg/ml of BSA). Inhibitors were preincubated with HDACs for 30 min at a 2:1 ratio before serial dilution. Labeled peptide was added to a final concentration of 1 μM in a 50-μl reaction volume. […] Data were analyzed using GraphPad Prism, assuming non-linear fit with one-site binding to fulfill the equation y = Bmax × x/(Kd + x).

[3] = target: T3, HDAC5 catalytic domain (Homo sapiens, UniProt Q9UQL6); experiment: Fluorescence anisotropy binding of labeled GSI peptide to HDAC5; conditions: Fig. 2B, labeled wild type peptide 1 μM
T3 construct: we purified the recombinant catalytic domains of HDACs 4, 5, 7, and 9; hexa-histidine tag (N, cleaved yes); S-tag (N, cleaved yes); made in house; host or cells: Escherichia coli Rosetta (as for HDAC4)
Procedure: (§1) Wild type peptide was obtained from Biomatik. Mutant peptides were synthesized in house using a CEM microwave peptide synthesizer. Peptides for use in fluorescence anisotropy assays were synthesized with an extra N-terminal cysteine.
(§2) Peptides were coupled to BODIPY-TMR by incubation in 18 MΩ water at a 5:1 molar ratio for 2 h at room temperature with continual stirring. Following incubation, buffer was exchanged into 1× PBS, 0.5 mM Tris(2-carboxyethyl)phosphine using a PD-10 column (GE Healthcare). Labeled peptides were concentrated using an Amicon centrifugal concentrator. Immediately prior to the fluorescence anisotropy assays the HDACs were concentrated and buffer exchanged into 1× PBS, 0.5 mM Tris(2-carboxyethyl)-phosphine and the protein concentration was determined by A280 in 6 M guanidine HCl. Protein was dispensed into 96-well black plates prior to a 2-fold serial dilution in reaction buffer (1× PBS, 0.01% Triton X-100, 0.1 mg/ml of BSA). Inhibitors were preincubated with HDACs for 30 min at a 2:1 ratio before serial dilution. Labeled peptide was added to a final concentration of 1 μM in a 50-μl reaction volume. Measurements were recorded using an excitation wavelength of 531 nm and emission wavelength of 595 nm. Data were analyzed using GraphPad Prism, assuming non-linear fit with one-site binding to fulfill the equation y = Bmax × x/(Kd + x).

[4] = target: T4, HDAC7 catalytic domain (Homo sapiens, UniProt Q8WUI4); experiment: Fluorescence anisotropy binding of labeled GSI peptide to HDAC7; conditions: Fig. 2B, labeled wild type peptide 1 μM
T4 construct: we purified the recombinant catalytic domains of HDACs 4, 5, 7, and 9; hexa-histidine tag (N, cleaved yes); S-tag (N, cleaved yes); made in house; host or cells: Escherichia coli Rosetta (as for HDAC4)
T4 sequence (Q8WUI4 512-865 limits assumed): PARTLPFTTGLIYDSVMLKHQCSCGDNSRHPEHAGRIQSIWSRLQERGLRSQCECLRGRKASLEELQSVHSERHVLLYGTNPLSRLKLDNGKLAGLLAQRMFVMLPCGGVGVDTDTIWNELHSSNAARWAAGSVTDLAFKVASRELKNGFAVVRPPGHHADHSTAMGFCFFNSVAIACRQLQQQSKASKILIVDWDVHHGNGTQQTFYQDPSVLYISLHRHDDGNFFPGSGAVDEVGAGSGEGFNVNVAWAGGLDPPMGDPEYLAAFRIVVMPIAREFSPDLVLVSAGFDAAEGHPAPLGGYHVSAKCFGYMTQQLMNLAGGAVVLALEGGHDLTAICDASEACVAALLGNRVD
Procedure: as §1, §2

[5] = target: T5, HDAC9 catalytic domain (Homo sapiens, UniProt Q9UKV0); experiment: Fluorescence anisotropy binding of labeled GSI peptide to HDAC9; conditions: Fig. 2B, labeled wild type peptide 1 μM
T5 construct: we purified the recombinant catalytic domains of HDACs 4, 5, 7, and 9; hexa-histidine tag (N, cleaved yes); S-tag (N, cleaved yes); made in house; host or cells: Escherichia coli Rosetta (as for HDAC4)
Procedure: as §1, §2

[6] = target: T6, full-length HDAC8 (Homo sapiens, UniProt Q9BY41); experiment: Fluorescence anisotropy binding of labeled GSI peptide to HDAC8; conditions: Fig. 2B, class I HDAC8 control, labeled wild type peptide 1 μM
T6 construct: along with full-length HDAC8 as an intrinsically active class I HDAC control; made in house
T6 sequence (Q9BY41 1-377): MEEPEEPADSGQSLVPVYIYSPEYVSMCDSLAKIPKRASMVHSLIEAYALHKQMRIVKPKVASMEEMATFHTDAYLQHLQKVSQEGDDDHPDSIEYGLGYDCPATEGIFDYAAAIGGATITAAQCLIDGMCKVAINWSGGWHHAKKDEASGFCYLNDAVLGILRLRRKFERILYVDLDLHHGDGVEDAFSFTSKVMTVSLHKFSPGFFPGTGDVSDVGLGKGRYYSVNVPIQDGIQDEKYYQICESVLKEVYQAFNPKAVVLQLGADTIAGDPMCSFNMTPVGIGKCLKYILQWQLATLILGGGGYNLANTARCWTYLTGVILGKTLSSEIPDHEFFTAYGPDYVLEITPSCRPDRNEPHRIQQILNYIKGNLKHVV
Procedure: as §1, §2

[7] = target: T7, HDAC4cd C667A (Homo sapiens, UniProt P56524, C667A); experiment: Fluorescence anisotropy binding of GSI peptide to HDAC4 C667A mutant; conditions: Fig. 3C, zinc chelating residue mutant
T7 construct: we purified the recombinant catalytic domains of HDACs 4, 5, 7, and 9; hexa-histidine tag (N, cleaved yes); S-tag (N, cleaved yes); made in house; host or cells: Escherichia coli Rosetta (pET30)
Procedure: as §2

[8] = target: T8, HDAC4cd H675A (Homo sapiens, UniProt P56524, H675A); experiment: Fluorescence anisotropy binding of GSI peptide to HDAC4 H675A mutant; conditions: Fig. 3C, zinc chelating residue mutant
T8 construct: we purified the recombinant catalytic domains of HDACs 4, 5, 7, and 9; hexa-histidine tag (N, cleaved yes); S-tag (N, cleaved yes); made in house; host or cells: Escherichia coli Rosetta (pET30)
Procedure: as §2

[9] = target: T9, HDAC4cd C751A (Homo sapiens, UniProt P56524, C751A); experiment: Fluorescence anisotropy binding of GSI peptide to HDAC4 C751A mutant; conditions: Fig. 3C, zinc chelating residue mutant
T9 construct: we purified the recombinant catalytic domains of HDACs 4, 5, 7, and 9; hexa-histidine tag (N, cleaved yes); S-tag (N, cleaved yes); made in house; host or cells: Escherichia coli Rosetta (pET30)
Procedure: as §2

[10] = Fig. 2A, fluorescence anisotropy, BODIPY-TMR labeled peptide 1 μM, HDAC4 2-fold serial dilution, one-site binding fit, read-out: Kd

T1 sequence (P56524 655-1084 limits assumed): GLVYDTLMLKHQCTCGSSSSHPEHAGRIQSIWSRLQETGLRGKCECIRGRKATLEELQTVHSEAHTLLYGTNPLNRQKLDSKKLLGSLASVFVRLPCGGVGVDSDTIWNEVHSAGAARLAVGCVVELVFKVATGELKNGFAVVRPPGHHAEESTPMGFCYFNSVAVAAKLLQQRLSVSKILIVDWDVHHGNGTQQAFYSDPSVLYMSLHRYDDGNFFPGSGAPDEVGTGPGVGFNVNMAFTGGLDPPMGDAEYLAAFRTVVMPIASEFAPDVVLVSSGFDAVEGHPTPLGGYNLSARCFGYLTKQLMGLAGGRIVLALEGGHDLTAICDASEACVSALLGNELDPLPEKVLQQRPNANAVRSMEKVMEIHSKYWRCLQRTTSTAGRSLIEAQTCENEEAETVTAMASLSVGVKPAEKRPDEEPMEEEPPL
T9 sequence (P56524 655-1084 C751A limits assumed): as the sequence (P56524 655-1084 limits assumed) above, with C97A counted along it
T3 sequence (Q9UQL6 684-1028 limits assumed, species assumed): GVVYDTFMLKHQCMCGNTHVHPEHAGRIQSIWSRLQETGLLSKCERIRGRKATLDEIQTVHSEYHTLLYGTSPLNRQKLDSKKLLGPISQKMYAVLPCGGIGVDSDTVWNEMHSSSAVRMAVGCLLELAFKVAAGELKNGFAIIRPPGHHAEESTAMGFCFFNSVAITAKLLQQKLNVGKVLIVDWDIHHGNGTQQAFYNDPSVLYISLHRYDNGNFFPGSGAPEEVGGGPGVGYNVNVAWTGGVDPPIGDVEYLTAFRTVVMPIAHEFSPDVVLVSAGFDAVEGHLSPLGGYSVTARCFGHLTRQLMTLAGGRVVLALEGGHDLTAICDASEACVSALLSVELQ
T8 sequence (P56524 655-1084 H675A limits assumed): as the sequence (P56524 655-1084 limits assumed) above, with H21A counted along it
T5 sequence (Q9UKV0 631-978 limits assumed, species assumed): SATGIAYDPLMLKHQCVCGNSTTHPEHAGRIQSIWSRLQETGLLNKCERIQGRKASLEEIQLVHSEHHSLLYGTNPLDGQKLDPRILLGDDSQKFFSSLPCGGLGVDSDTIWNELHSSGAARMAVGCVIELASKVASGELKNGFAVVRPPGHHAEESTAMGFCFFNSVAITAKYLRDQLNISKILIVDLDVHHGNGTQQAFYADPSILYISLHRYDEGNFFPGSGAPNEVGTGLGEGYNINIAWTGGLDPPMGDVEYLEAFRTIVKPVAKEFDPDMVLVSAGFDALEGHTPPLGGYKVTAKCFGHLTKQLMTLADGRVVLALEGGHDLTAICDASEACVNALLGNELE
T7 sequence (P56524 655-1084 C667A limits assumed): as the sequence (P56524 655-1084 limits assumed) above, with C13A counted along it

Compound: O=C(CCCCCCC(=O)Nc1ccccc1)NO [SAHA, suberoylanilide hydroxamic acid, reference compound]
maximum polarization of GSI peptide binding in the presence of inhibitor ([1]; wild type HDAC4, 2-fold molar excess of inhibitor): lower maximum polarization

Compound: CCCC(=O)[O-].[Na+] [Sodium Butyrate, sodium butyrate, reference compound]
Kd ([1]; Fig. 4A, wild type HDAC4 catalytic domain preincubated 30 min with 2-fold molar excess of the named inhibitor, Kd is that of the labeled GSI peptide, read-out: WT Kd of the GSI peptide in the presence of the HDAC inhibitor): 4.61 ± 0.26 µM | Kd ([2]; Fig. 4A, H976Y GOF HDAC4 catalytic domain preincubated 30 min with 2-fold molar excess of the named inhibitor, Kd is that of the labeled GSI peptide, read-out: GOF Kd of the GSI peptide in the presence of the HDAC inhibitor): 2.53 ± 0.24 µM

Compound: CPRPLKEGSITAGTPLKYDTG [Q5A]
Kd [1, 10]: 5.47 ± 0.57 µM

Compound: CPRPLKEGSITEGTPLKYDTG [Q5E]
Kd [1, 10]: 17.7 ± 1.4 µM

Compound: CPRPLKEGSITQGTALKYDTG [P8A]
Kd [1, 10]: 47 ± 12.3 µM

The remaining lines, values ahead:

Kd ([1]; read-out: WT Kd of the GSI peptide in the presence of the HDAC inhibitor): 3.38 ± 0.24 µM | Kd ([2]; read-out: GOF Kd of the GSI peptide in the presence of the HDAC inhibitor): 2.62 ± 0.18 µM
Compound: CCCC(CCC)C(=O)O [Valproic Acid, valproic acid, reference compound]

Kd ([1]; Fig. 4A, wild type HDAC4 catalytic domain, DMSO, read-out: WT Kd): 3.22 ± 0.2 µM | Kd ([1]; Fig. 4A, wild type HDAC4 catalytic domain, No Inhibitor, read-out: WT Kd): 4.73 ± 0.31 µM | Kd [3]: 4.24 ± 0.59 µM | Kd [4]: 4.44 ± 0.44 µM | Kd [5]: 8.34 ± 1.07 µM | Kd [6]: no interaction | Kd ([6]; read-out: Kd): > 1000 µM | Kd [7]: > 1000 µM | Kd [8]: > 1000 µM | Kd [9]: > 1000 µM | Kd ([2]; Fig. 4A, H976Y GOF HDAC4 catalytic domain, DMSO, read-out: GOF Kd): 2.94 ± 0.15 µM | Kd ([2]; Fig. 4A, H976Y GOF HDAC4 catalytic domain, No Inhibitor, read-out: GOF Kd): 1.76 ± 0.18 µM
Compound: CC[C@H](C)[C@H](NC(=O)[C@H](CO)NC(=O)CNC(=O)[C@H](CCC(=O)O)NC(=O)[C@H](CCCCN)NC(=O)[C@H](CC(C)C)NC(=O)[C@@H]1CCCN1C(=O)[C@H](CCCNC(=N)N)NC(=O)[C@@H]1CCCN1C(=O)[C@@H](N)CS)C(=O)N[C@H](C(=O)N[C@@H](CCC(N)=O)C(=O)NCC(=O)N[C@H](C(=O)N1CCC[C@H]1C(=O)N[C@@H](CC(C)C)C(=O)N[C@@H](CCCCN)C(=O)N[C@@H](Cc1ccc(O)cc1)C(=O)N[C@@H](CC(=O)O)C(=O)N[C@H](C(=O)NCC(=O)O)[C@@H](C)O)[C@@H](C)O)[C@@H](C)O [WT]

Kd [1, 10]: 14.4 ± 4.26 µM
Compound: CPRPLKEGSIAQGTPLKYDTG [T4A]

Kd [1, 10]: 16.9 ± 8.73 µM
Compound: CPRPLKEGSIVQGTPLKYDTG [T4V]
